Experiments:
[1] = tested on: CAR T cells; experiment: In vitro CAR T cell proliferation with tacrolimus; type: cell-based; details: higher concentrations of tacrolimus; in the presence or absence of tumor
Experimental: (§1) CAR T cells used in the clinical study described in Example 1 were assessed according to standard in vitro methods; CD19 CAR expression was assessed (FIG. 2); CAR T cell cytotoxicity was assessed (FIG. 3); CD3 T cell proliferation was assessed (FIG. 4); and CAR T cell proliferation was assessed (FIG. 4).

[2] = tested on: CAR T cells; experiment: In vitro CAR T cell cytotoxicity with tacrolimus; type: cell-based; details: higher concentrations of tacrolimus, FIGS. 2-5
Experimental: as §1

[3] = healthy subjects, oral administration; cited from earlier work

SMILES: C=CC[C@@H]1/C=C(\C)C[C@H](C)C[C@H](OC)[C@H]2O[C@@](O)(C(=O)C(=O)N3CCCC[C@H]3C(=O)O[C@H](/C(C)=C/[C@@H]3CC[C@@H](O)[C@H](OC)C3)[C@H](C)[C@@H](O)CC1=O)[C@H](C)C[C@@H]2OC [tacrolimus]
- CAR T cell proliferation [1]: reduced CAR T cell proliferation
- CAR T cytotoxicity [2]: reduced CAR T cytotoxicity
- CAR T cytotoxicity ([2]; listed as Tacrolimus): Reduces CAR T Cytotoxicity in a Dose-Dependent Manner
- absolute bioavailability [3]: 18±5%
